Assay results from US12077503B2, “Substituted cyclic amides and their use as herbicides” (FMC CORPORATION, priority 2015, dated 2024).

Legend:
Type in all cases: in vivo
[1] = tested on: barnyardgrass (Echinochloa crus-galli); test: Test A preemergence
Outline: (§1)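 Compounds were formulated in a non-phytotoxic solvent mixture with surfactant and applied as a preemergence directed soil spray after seeding, or sprayed postemergence over plants 2 to 10 cm tall at the one- to two-leaf stage. Evaluation after about 10 d compared treated with untreated controls, using a scale from 0 (no effect) to 100 (complete control).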

corn (Zea mays) [2] = test: Test A preemergence
Outline: as §1

[3] = tested on: crabgrass, large (Digitaria sanguinalis); test: Test A preemergence
Outline: as §1

[4] = tested on: giant foxtail (Setaria faberii); test: Test A preemergence
Outline: as §1

[5] = tested on: morningglory (Ipomoea spp.); test: Test A preemergence
Outline: as §1

[6] = tested on: pigweed (Amaranthus retroflexus); test: Test A preemergence
[7] = tested on: velvetleaf (Abutilon theophrasti); test: Test A preemergence
Outline: as §1

[8] = tested on: wheat (Triticum aestivum); test: Test A preemergence
Outline: as §1

[9] = tested on: barnyardgrass (Echinochloa crus-galli); test: Test A postemergence
Outline: as §1

corn (Zea mays) [10] = test: Test A postemergence
Outline: as §1

[11] = tested on: crabgrass, large (Digitaria sanguinalis); test: Test A postemergence
Outline: as §1

[12] = tested on: giant foxtail (Setaria faberii); test: Test A postemergence
Outline: as §1

[13] = tested on: morningglory (Ipomoea spp.); test: Test A postemergence
Outline: as §1

[14] = tested on: pigweed (Amaranthus retroflexus); test: Test A postemergence
Outline: as §1

[15] = tested on: velvetleaf (Abutilon theophrasti); test: Test A postemergence
Outline: as §1

[16] = tested on: wheat (Triticum aestivum); test: Test A postemergence
Outline: as §1

[17] = tested on: barnyardgrass (Echinochloa crus-galli); test: Test B flooded paddy test; conditions: Flood, 250 g ai/ha; 0 to 100 scale where 0 is no effect and 100 is complete control; 13 to 15 d
Outline: (§2)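 Evaluation by eye, against controls, occurred 13–15 d post-treatment in a greenhouse, using a 0 (no effect) to 100 (complete control) scale. Application was into the paddy water, 3 cm deep over the soil, on 2-leaf plants.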

[18] = tested on: ducksalad (Heteranthera limosa); test: Test B flooded paddy test; conditions: Flood, 250 g ai/ha; 0 to 100 scale where 0 is no effect and 100 is complete control; 13 to 15 d
Outline: as §2

rice (Oryra sativa) = test: Test B flooded paddy test; conditions: Flood, 250 g ai/ha; 0 to 100 scale where 0 is no effect and 100 is complete control; 13 to 15 d
Outline: as §2

[19] = tested on: sedge, umbrella (small-flower umbrella sedge, Cyperus difformis); test: Test B flooded paddy test; conditions: Flood, 250 g ai/ha; 0 to 100 scale where 0 is no effect and 100 is complete control; 13 to 15 d
Outline: as §2

[20] = 125 g ai/ha, preemergence, 0 to 100 scale (0 no effect, 100 complete control)
[21] = Preemergence, 500 g ai/ha, 0 is no effect, 100 is complete control
[22] = 500 g ai/ha, postemergence, 0 to 100 scale, 0 no effect, 100 complete control
[23] = Postemergence, 125 g ai/ha, visual injury, 0 to 100 scale (0 no effect, 100 complete control), approx. 10 d

O=C1NCC(c2ccc(F)c(F)c2)C1C(=O)Nc1n[nH]cc1Br (racemic) [Compound 361]
0: Plant response rating, Barnyardgrass [1, 20] | Barnyardgrass plant response rating (0 to 100 scale) [1, 21] | Plant response rating, Corn (corn (Zea mays) [2]; [20]) | Corn plant response rating (0 to 100 scale) (corn (Zea mays) [2]; [21]) | Plant response rating, Crabgrass, Large [3, 20] | Crabgrass, Large plant response rating (0 to 100 scale) [3, 21] | Plant response rating, Foxtail, Giant [4, 20] | Foxtail, Giant plant response rating (0 to 100 scale) [4, 21] | Plant response rating, Morningglory [5, 20] | Morningglory plant response rating (0 to 100 scale) [5, 21] | Plant response rating, Pigweed [6, 20] | Pigweed plant response rating (0 to 100 scale) [6, 21] | Plant response rating, Velvetleaf [7, 20] | Velvetleaf plant response rating (0 to 100 scale) [7, 21] | Plant response rating, Wheat [8, 20] | Wheat plant response rating (0 to 100 scale) [8, 21] | Plant response rating, Barnyardgrass [9, 22] | Plant response rating, Barnyardgrass [9, 23] | Plant response rating, Corn (corn (Zea mays) [10]; [22]) | Plant response rating, Corn (corn (Zea mays) [10]; [23]) | Plant response rating, Crabgrass, Large [11, 22] | Plant response rating, Crabgrass, Large [11, 23] | Plant response rating, Foxtail, Giant [12, 22] | Plant response rating, Foxtail, Giant [12, 23] | Plant response rating, Morningglory [13, 22] | Plant response rating, Morningglory [13, 23] | Plant response rating, Pigweed [14, 22] | Plant response rating, Pigweed [14, 23] | Plant response rating, Velvetleaf [15, 22] | Plant response rating, Velvetleaf [15, 23] | Plant response rating, Wheat [16, 22] | Plant response rating, Wheat [16, 23] | Plant response rating, Barnyardgrass [17] | Plant response rating, Ducksalad [18] | Plant response rating, Rice (rice (Oryra sativa)) | Plant response rating, Sedge, Umbrella [19]
